In patent publication US20040039059A1, “Use of n,n' -dibenzyl ethylene diamine-n, n'- diacetic acid derivatives as anti-pollution agent” (priority 2000, published 2004):

System: human keratinocytes
Assay: Neutral red incorporation test: cytotoxicity of cadmium chloride on human keratinocytes in culture, with or without protecting agent
Type: cell-based
Settings: for protection of cells against the toxicity of cadmium chloride (in words): protecting agent at 50 and 100 μM
Protocol: The cytotoxic effect of cadmium on human keratinocytes in culture was evaluated by means of a technique of measuring the cell viability, known as the neutral red incorporation test (E. Borenfreund and J. A. Puerner, Tissue Culture Methods. 1984, 9: 7-9).
The study was performed on a monolayer culture of human keratinocytes obtained from plastic surgeries. The cells are inoculated on D-3 into 96-well culture dishes at a rate of 25 000 cells/cm^2 in 100 μl of culture medium (calf serum-free defined medium, NR2, Biofluids). The incubations are performed in an incubator at 37° C. under a humid atmosphere enriched with 5% CO2.
The cells are treated for 24 hours with increasing concentrations (0, 10, 25, 50, 75, 100, 150 and 200 μM) of cadmium chloride (CdCl2) alone, so as to determine its cytotoxicity. In parallel, a treatment is performed under the same conditions, but in the presence of N,N′-bis(3,4,5-trimethoxybenzyl)ethylenediamine-N,N′-diacetic acid (100 and 50 μm). The incubations are performed in an incubator at 37° C., [lacuna] % CO2 under a humid atmosphere.
At the end of the period of contact, a neutral red incorporation test is performed and the results are read on a spectrophotometer at 550 nm.
To do this, the cells are rinsed with PBS buffer in order to remove the treatment solutions; 100 μl per well of a 0.5 mg/ml neutral red solution are added to the culture medium; the mixture is incubated at 37° C. and 5% CO2, under a humid atmosphere, for three hours; the resulting mixture is rinsed with PBS; fixing is performed with formaldehyde/calcium solution for one minute; the neutral red is extracted with 100 μl/well of ethanol-acetic acid solution; the optical density is read on the spectrophotometer at 550 nm and the CdCl2 concentration, resulting in a 50% reduction in viability=IC-50, is calculated.

**Q.** COc1cc(CN(CCN(CC(=O)O)Cc2cc(OC)c(OC)c(OC)c2)CC(=O)O)cc(OC)c1OC [N,N′-bis(3,4,5-trimethoxybenzyl)ethylenediamine-N,N′-diacetic acid] was tested. Which “protection of cells against the toxicity of cadmium chloride (in words)” value (human keratinocytes) did it give?
**A.** significantly protects the cells against the toxicity of this pollutant

**Q.** And the “protection of cells against the toxicity of cadmium chloride (in words)” value (human keratinocytes, listed as N,N′-dimethylethylenediamine-N,N′-diacetic acid)?
**A.** cytotoxicity of cadmium chloride decreases significantly

**Q.** And the “factor by which the cytotoxicity of cadmium chloride decreases” value (protecting agent at 50 μM)?
**A.** 2.3

**Q.** What about the “factor by which the cytotoxicity of cadmium chloride decreases” value (protecting agent at 100 μM) of the same compound?
**A.** 3.1

**Q.** [Cl][Cd][Cl] [cadmium chloride, reference compound] was tested. Which IC50 (CdCl2 alone, 24 hours, human keratinocytes, neutral red, concentration giving 50% drop in cell viability, read-out: IC.50 of cadmium chloride without protecting agent (Mean ± SEM)) did it give?
**A.** 39 µM
